This passage reports IC50 and GI50 results from patent US20230416249A1, “N-[2-({4-[3-(ANILINO)-4-OXO-4,5,6,7-TETRAHYDRO-1H-PYRROLO[3,2-C]PYRIDIN-2-YL]PYRIDIN-3-YL)OXY)ETHYL]PROP-2-ENAMIDE DERIVATIVES AND SIMILAR COMPOUNDS AS EGFR INHIBITORS FOR THE TREATMENT OF CANCER” (Bayer Aktiengesellschaft, priority 2020, published 2023).

For experiment [1], the target named is T1, mutEGFR (D770_N771insSVD) (Homo sapiens, UniProt P00533, DUP768-770).
T1 construct: GST-EGFR #3 (SVD between D770 and N771); made in house; host or cells: Sf9 insect cells (baculovirus)
Description: Exon20-Mutant-EGFR(D770_N771insSVD) kinase assay (TR-FRET). The class given is biochemical. Particulars: GST-EGFR ins SVD, 2 mM ATP, 15 min pre-incubation. An excerpt: Inhibitory activity of compounds of the present invention against an Epidermal Growth Factor Receptor (EGFR) with an insertion of the amino acids sequence SVD between D770 and N771 was quantified employing the TR-FRET based kinase activity assay as described in the following paragraphs.
A recombinant fusion protein of N-terminal Glutathion-S-Transferase (GST) and a fragment of human EGFR variant (amino acids R669 to A1210 with insertion of the amino acids sequence SVD between D770 and N771 (“EGFR ins SVD”), expressed in Sf9 insect cells and purified via affinity chromatography using Glutathion Sepharose as described above, was used as a kinase. As substrate for the kinase reaction the biotinylated peptide biotin-Ahx-AEEEEYFELVAKKK (SEQ ID NO: 6) (C-terminus in amide form) was used which can be purchased e.g. form the company Biosynthan GmbH (Berlin-Buch, Germany).
For the assay 50 nl of a 100-fold concentrated solution of the test compound in DMSO was pipetted into either a black low volume 384 well microtiter plate or a black 1536 well microtiter plate (both Greiner Bio-One, Frickenhausen, Germany), 2 μl of a solution of EGFR in aqueous assay buffer [50 mM Hepes pH 7.0, 10 mM MgCl2, 1 mM dithiothreitol, 0.5 mM EGTA, 0.3 mM activated sodium ortho-vanadate, 0.005% (w/v) bovine serum albumin, 0.005% (v/v) Tween-20] were added and the mixture was incubated for 15 min at 22° C. to allow pre binding of the test compounds to the enzyme before the start of the kinase reaction. Then the kinase reaction was started by the addition of 3 μL of a solution of adenosine tri phosphate (ATP, 3.33 mM=>final conc. in the 5 μL assay volume is 2 mM) and substrate (1.67 μM=>final conc. in the 5 μL assay volume is 1 μM) in assay buffer and the resulting mixture was incubated for a reaction time of 30 min at 22° C. The concentration of EGFR was adjusted depending of the activity of the enzyme lot and was chosen appropriate to have the assay in the linear range, typical concentration was 15 pg/μl. The reaction was stopped by the addition of 3 μl of a solution of HTRF detection reagents (83.3 nM streptavidine-XL665 [Cisbio Bioassays, Codolet, France] and 1.67 nM PT66-Tb-Cryptate, a terbium-cryptate labelled anti-phospho-tyrosine antibody from Cisbio Bioassays [instead of the PT66 Tb cryptate PT66 Eu Chelate from Perkin Elmer can also be used]) in an aqueous EDTA-solution (133.3 mM EDTA, 0.2% (w/v) bovine serum albumin in 50 mM HEPES pH 7.5).
The resulting mixture was incubated 1 h at 22° C. to allow the binding of the biotinylated phosphorylated peptide to the streptavidine-XL665 and the PT66-Tb-Cryptate. Subsequently the amount of phosphorylated substrate was evaluated by measurement of the resonance energy transfer from the PT66-Tb-Cryptate to the streptavidine-XL665. Therefore, the fluorescence emissions at 620 nm and 665 nm after excitation at 337 nm were measured in a HTRF reader, e.g. a Pherastar (BMG Labtechnologies, Offenburg, Germany) or a Viewlux (Perkin-Elmer). The ratio of the emissions at 665 nm and at […] was taken as the measure for the amount of phosphorylated substrate. The data were normalised (enzyme reaction without inhibitor=0% inhibition, all other assay components but no enzyme=100% inhibition).
Background: In TR-FRET formats the signal depends on donor and acceptor labels being close together.

The target in experiment [2] is Ba/F3-EGFR-L858R T790M cells (Homo sapiens, UniProt P00533, T790M/L858R, cells depend on it). Description: Ba/F3 cell survival assay (Cell Titer-Glo), EGFR-L858R T790M. The following applies: 48 h, without IL-3, 10 ng/mL EGF; read-out: BA/F3 (L858R T790M) IC50. The class given is cell-based. The method, then: (§1) 293T cells from ATCC were transfected with pBABEpuro expression constructs for EGFR-L858R, EGFR-E746_A750del, EGFR-L858R T790M, or EGFR-E746_A750del T790M, and pCL-Eco packaging vector using Fugene-6 transfection reagent from Promega. Plates were incubated at 37° C. for 48 h. Retrovirus was harvested by filtering the media supernatant through a 0.45 μm filter.
(§2) Ba/F3 cells purchased from DSMZ were grown in RPMI+10% FBS+10 ng/mL IL-3 and infected with filtered retroviral supernatant at a 1:2 dilution. Polybrene was added to a concentration of 8 μg/mL, plates were spun for 90 min, and incubated for 16 h at 37° C. 2 μg/mL puromycin was added to the infected cells 24 h after infection and cells were continually grown in the presence of puromycin and 10 ng/mL IL-3. Following stably expressing Ba/F3 cell lines were generated: Ba/F3-EGFR-L858R, Ba/F3-EGFR-E746_A750del, Ba/F3-EGFR-L858R T790M, or Ba/F3-EGFR-E746_A750del T790M.
(§3) For cell survival assays, Ba/F3 cells were grown to a density of 1-2 million cells per mL, spun down and resuspended in media without IL-3, and replated at a concentration 200,000-500,000 cells per mL. The cells ectopically expressing EGFR-L858R, EGFR-E746_A750del, EGFR-L858R T790M, or EGFR-E746_A750del T790M were plated with 10 ng/mL Millipore Culture grade EGF. The cells ectopically expressing pBABEpuro empty vector were plated with 10 ng/mL IL-3.
(§4) 2 days later, cells were plated in 50 μL in a 384 well plate at a concentration of 4000 cells per well for cells assayed in the absence of IL-3 and 2000 cells per well for cells assayed in the presence of IL-3. 100 nL of compound was added to each well using a 100 nL pin head, and plates were incubated at 37° C. for 48 h.
(§5) Cell viability was measured by adding 20 μL of Cell Titer-Glo Luminescent Cell Viability Reagent diluted 1:3 in PBS. Plates were sealed with Perkin Elmer Top-Seal, inverted several times to mix, and immediately centrifuged at 1000 rpm for 2 min. Plates were incubated in low light conditions for 8-10 min and luminescence was measured.
A general note: Cellular ATP, detected with luciferase, serves as a proxy for viable cell number.

In another experiment the target is Ba/F3-EGFR-WT cells (Homo sapiens, UniProt P00533). Description: Ba/F3 cell survival assay (Cell Titer-Glo), WT EGFR. The following applies: 48 h, without IL-3, 10 ng/mL EGF; read-out: BA/F3 (wild type) IC50. It is filed as cell-based. The method, then: (§6) 293T cells from ATCC were transfected with pBABEpuro expression constructs for WT EGFR or EGFR-insSVD, or EGFR-insSVD T790M, and pCL-Eco packaging vector using Fugene-6 transfection reagent from Promega. Plates were incubated at 37° C. for 48 h. Retrovirus was harvested by filtering the media supernatant through a 0.45 μm filter.
(§7) Ba/F3 cells purchased from DSMZ were grown in RPMI+10% FBS+10 ng/mL IL-3 and infected with filtered retroviral supernatant at a 1:2 dilution. Polybrene was added to a concentration of 8 μg/mL, plates were spun for 90 min, and incubated for 16 h at 37° C. 2 μg/mL puromycin was added to the infected cells 24 h after infection and cells were continually grown in the presence of puromycin and 10 ng/mL IL-3. Following stably expressing Ba/F3 cell lines were generated: Ba/F3-EGFR-WT, Ba/F3-EGFR-insSVD, Ba/F3-EGFR-insSVD T790M, (Ba/F3—vector-control).
(§8) For cell survival assays, Ba/F3 cells were grown to a density of 1-2 million cells per mL, spun down and resuspended in media without IL-3, and replated at a concentration 200,000-500,000 cells per mL. The cells ectopically expressing WT EGFR, EGFR-insSVD, or EGFR-insSVD T790M were plated with 10 ng/mL Millipore Culture grade EGF. The cells ectopically expressing pBABEpuro empty vector were plated with 10 ng/mL IL-3.
as §4, §5

Another experiment has as its target Ba/F3-EGFR-insSVD cells (Homo sapiens, UniProt P00533, DUP768-770, cells depend on it). The experiment is described as follows: Ba/F3 cell survival assay (Cell Titer-Glo), EGFR-insSVD. The class given is cell-based. Particulars: 48 h, without IL-3, 10 ng/mL EGF; read-out: BA/F3 (insSVD) IC50. The method, then:
as §6, §7, §8, §4, §5

Experiment [3] addresses Ba/F3-EGFR-E746_A750del T790M cells (Homo sapiens, UniProt P00533, DEL746-750/T790M, cells depend on it). The experiment is described as follows: Ba/F3 cell survival assay (Cell Titer-Glo), EGFR-E746_A750del T790M. It is filed as cell-based. Particulars: 48 h, without IL-3, 10 ng/mL EGF; read-out: BA/F3 (E746_A750del T790M) IC50. As to the method:
as §1, §2, §3, §4, §5

Values joined by “and” are separate entries in the source; they are usually repeats but may differ in a detail not shown here. Equal values may be shown once. A value given as a limit tells only on which side of the number the result lay.

Sequence of Ba/F3-EGFR-E746_A750del T790M cells (P00533 with tags, fused parts or gaps DEL746-750/T790M): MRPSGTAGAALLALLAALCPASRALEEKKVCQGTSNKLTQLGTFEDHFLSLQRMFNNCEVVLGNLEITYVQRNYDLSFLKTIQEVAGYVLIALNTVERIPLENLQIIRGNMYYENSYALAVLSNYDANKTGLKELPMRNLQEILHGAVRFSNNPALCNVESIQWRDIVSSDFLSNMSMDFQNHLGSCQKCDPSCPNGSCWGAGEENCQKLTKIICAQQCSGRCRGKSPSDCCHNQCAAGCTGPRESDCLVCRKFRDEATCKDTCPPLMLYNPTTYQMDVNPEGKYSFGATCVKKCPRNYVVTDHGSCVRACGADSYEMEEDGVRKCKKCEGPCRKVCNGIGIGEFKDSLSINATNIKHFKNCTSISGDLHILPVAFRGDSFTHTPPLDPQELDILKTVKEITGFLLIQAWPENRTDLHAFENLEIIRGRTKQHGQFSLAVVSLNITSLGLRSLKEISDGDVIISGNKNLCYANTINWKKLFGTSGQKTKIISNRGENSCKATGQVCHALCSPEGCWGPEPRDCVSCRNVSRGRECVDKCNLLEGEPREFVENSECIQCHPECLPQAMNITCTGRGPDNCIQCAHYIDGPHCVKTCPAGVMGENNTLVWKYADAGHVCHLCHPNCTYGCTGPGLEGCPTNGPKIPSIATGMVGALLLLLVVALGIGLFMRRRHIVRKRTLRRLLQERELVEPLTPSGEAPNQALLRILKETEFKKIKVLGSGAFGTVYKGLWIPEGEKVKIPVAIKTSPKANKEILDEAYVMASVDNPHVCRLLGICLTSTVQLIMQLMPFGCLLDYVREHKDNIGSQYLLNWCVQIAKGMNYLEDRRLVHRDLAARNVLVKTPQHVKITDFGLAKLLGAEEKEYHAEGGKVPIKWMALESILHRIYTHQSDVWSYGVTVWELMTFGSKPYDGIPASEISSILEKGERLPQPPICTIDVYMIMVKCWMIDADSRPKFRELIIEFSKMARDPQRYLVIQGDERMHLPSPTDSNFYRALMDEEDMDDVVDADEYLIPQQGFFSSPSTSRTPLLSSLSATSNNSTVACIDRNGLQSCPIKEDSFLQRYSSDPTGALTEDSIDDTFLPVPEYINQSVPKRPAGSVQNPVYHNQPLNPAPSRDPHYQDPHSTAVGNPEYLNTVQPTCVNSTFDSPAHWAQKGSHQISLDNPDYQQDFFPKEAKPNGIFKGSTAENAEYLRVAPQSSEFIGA
Sequence of Ba/F3-EGFR-WT cells (P00533 whole entry, stated change not applied): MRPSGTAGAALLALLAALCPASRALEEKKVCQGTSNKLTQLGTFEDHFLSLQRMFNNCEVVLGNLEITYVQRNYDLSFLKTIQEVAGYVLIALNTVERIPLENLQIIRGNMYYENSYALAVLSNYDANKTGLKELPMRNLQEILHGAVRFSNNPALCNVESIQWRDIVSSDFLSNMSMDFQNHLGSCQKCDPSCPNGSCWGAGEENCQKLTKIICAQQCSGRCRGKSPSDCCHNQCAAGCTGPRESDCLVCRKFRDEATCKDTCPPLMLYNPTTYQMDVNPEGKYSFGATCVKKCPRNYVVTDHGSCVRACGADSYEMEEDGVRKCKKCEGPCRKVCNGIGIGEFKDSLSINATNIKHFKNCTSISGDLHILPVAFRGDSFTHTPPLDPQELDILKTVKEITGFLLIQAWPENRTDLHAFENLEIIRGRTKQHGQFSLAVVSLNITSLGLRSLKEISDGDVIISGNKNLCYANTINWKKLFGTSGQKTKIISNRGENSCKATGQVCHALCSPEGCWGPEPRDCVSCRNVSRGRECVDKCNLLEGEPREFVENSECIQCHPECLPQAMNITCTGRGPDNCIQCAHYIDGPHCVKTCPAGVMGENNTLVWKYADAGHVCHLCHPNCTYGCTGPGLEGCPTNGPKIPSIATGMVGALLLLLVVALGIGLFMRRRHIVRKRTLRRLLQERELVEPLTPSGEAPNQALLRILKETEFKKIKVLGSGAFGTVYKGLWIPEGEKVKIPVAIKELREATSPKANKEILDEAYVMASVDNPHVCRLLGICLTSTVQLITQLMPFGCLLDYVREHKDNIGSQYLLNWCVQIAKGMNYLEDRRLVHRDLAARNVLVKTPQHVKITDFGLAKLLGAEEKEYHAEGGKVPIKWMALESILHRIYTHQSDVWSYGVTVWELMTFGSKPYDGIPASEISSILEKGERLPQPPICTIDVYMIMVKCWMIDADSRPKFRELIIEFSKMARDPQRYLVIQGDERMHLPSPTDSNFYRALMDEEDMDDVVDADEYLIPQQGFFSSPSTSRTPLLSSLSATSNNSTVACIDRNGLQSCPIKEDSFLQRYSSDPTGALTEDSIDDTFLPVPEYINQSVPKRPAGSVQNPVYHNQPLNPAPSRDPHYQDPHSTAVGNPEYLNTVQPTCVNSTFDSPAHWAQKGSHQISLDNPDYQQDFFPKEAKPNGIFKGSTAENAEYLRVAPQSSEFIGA
Sequence of Ba/F3-EGFR-L858R T790M cells (P00533 whole entry T790M/L858R): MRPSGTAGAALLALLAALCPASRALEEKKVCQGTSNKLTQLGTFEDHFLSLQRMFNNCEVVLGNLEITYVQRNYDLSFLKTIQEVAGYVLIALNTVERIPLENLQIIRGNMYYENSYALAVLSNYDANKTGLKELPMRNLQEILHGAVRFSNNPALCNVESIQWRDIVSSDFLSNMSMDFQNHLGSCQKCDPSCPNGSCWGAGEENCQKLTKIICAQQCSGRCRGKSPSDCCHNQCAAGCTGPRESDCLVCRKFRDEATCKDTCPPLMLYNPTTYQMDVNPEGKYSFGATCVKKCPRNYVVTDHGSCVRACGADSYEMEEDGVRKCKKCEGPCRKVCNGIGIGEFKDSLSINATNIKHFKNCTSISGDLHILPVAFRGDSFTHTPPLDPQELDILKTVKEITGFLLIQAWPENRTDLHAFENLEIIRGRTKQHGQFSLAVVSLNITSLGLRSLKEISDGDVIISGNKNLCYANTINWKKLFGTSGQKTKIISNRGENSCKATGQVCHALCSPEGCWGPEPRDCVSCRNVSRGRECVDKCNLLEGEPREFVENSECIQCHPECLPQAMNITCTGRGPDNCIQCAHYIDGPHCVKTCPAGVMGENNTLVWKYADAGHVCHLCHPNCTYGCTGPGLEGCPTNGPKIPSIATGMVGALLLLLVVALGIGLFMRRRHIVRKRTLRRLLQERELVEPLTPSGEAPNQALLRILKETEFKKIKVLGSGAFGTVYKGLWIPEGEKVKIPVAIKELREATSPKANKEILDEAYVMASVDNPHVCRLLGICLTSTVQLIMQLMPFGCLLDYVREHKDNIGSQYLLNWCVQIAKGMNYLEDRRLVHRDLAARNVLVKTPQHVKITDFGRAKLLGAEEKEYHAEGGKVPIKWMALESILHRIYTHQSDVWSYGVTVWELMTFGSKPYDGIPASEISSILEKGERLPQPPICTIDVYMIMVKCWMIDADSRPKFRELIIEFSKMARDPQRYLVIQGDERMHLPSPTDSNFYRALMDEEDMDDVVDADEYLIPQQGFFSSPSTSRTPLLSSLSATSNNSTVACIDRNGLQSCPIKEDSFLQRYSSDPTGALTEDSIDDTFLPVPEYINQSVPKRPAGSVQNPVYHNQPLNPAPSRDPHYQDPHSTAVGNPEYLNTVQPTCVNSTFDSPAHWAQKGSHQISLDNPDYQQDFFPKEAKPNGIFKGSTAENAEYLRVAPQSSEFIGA
Sequence of Ba/F3-EGFR-insSVD cells (P00533 with tags, fused parts or gaps DUP768-770): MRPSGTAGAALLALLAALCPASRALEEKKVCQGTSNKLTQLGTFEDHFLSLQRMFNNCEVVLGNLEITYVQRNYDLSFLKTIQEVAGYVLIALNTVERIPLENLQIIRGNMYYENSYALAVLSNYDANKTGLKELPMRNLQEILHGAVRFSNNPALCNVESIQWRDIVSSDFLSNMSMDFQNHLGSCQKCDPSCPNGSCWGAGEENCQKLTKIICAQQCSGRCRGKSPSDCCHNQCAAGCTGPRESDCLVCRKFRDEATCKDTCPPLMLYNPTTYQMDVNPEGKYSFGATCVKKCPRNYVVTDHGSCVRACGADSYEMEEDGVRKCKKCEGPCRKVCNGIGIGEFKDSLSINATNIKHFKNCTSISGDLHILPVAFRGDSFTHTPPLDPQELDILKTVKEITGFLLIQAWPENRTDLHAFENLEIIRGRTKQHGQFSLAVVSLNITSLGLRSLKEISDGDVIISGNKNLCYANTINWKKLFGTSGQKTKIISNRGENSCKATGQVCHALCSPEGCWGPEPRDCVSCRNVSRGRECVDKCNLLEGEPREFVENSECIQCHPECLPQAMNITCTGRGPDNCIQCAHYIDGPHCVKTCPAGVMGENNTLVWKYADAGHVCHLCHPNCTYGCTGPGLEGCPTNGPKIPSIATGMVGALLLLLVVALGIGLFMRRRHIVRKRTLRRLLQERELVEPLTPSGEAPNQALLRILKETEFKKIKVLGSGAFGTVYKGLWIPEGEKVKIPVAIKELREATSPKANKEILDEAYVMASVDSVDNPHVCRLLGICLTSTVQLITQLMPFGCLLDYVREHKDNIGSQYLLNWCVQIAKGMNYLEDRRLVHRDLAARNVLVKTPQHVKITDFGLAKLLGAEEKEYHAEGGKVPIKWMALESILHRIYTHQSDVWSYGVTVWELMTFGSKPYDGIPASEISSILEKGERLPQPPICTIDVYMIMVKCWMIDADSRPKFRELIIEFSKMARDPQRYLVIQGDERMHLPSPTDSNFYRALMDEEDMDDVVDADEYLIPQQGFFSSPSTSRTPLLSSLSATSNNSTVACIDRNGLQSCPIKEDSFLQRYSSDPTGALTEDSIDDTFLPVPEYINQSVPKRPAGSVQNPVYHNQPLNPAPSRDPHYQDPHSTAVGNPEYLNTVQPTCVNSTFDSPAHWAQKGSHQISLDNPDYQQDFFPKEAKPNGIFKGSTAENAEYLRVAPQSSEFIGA

For `COc1c(Cl)cccc1Nc1c(-c2ccncc2OCCN(C)C(=O)/C=C/CN(C)C)[nH]c2c1C(=O)NC1(CCC1)C2` [Example 10, (2E)-N-[2-({4-[3′-(3-chloro-2-methoxyanilino)-4′-oxo-1′,4′,5′,7′-tetrahydrospiro[cyclobutane-1,6′-pyrrolo[3,2-c]pyridin]-2′-yl]pyridin-3-yl}oxy)ethyl]-4-(dimethylamino)-N-methylbut-2-enamide], the IC50 in experiment [1] amounted to 3.55 nM. The GI50 was over 1000 nM in experiment [2], 1660 nM on Ba/F3-EGFR-WT cells, 205 nM on Ba/F3-EGFR-insSVD cells and 651 nM in experiment [3].

`C=CC(=O)N(C)CCOc1cnccc1-c1[nH]c2c(c1Nc1ccc(F)cc1)C(=O)NCC2` [Example 7, N-[2-({4-[3-(4-fluoroanilino)-4-oxo-4,5,6,7-tetrahydro-1H-pyrrolo[3,2-c]pyridin-2-yl]pyridin-3-yl}oxy)ethyl]-N-methylprop-2-enamide] returned an IC50 in experiment [1] of 1.62 nM. The GI50 in experiment [2] came out at 274 nM; on Ba/F3-EGFR-WT cells, 366 nM; at Ba/F3-EGFR-insSVD cells, 146 nM; in experiment [3], 21.9 nM.

Compound `C=CC(=O)N(C)CCOc1cnccc1-c1[nH]c2c(c1Nc1cccc(F)c1OC)C(=O)NCC2` [Example 6, N-[2-({4-[3-(3-fluoro-2-methoxyanilino)-4-oxo-4,5,6,7-tetrahydro-1H-pyrrolo[3,2-c]pyridin-2-yl]pyridin-3-yl}oxy)ethyl]-N-methylprop-2-enamide] registered an IC50 in experiment [1] of 0.171 nM. Moreover, the GI50 in experiment [2] amounted to 26.4 nM; at Ba/F3-EGFR-WT cells, 109 nM; on Ba/F3-EGFR-insSVD cells, 8.94 nM; in experiment [3], 4.96 nM.

On to `COc1c(Cl)cccc1Nc1c(-c2ccncc2OCCN(C)C(=O)/C=C/CN(C)C)[nH]c2c1C(=O)NCC2` [Example 9, (2E)-N-[2-({4-[3-(3-chloro-2-methoxyanilino)-4-oxo-4,5,6,7-tetrahydro-1H-pyrrolo[3,2-c]pyridin-2-yl]pyridin-3-yl}oxy)ethyl]-4-(dimethylamino)-N-methylbut-2-enamide], for which, in experiment [1], the midpoint of inhibition, the IC50, lay at 2.48 nM. Further, the GI50 in experiment [2] is 731 nM and > 1000 nM; on Ba/F3-EGFR-WT cells, 4520 nM; on Ba/F3-EGFR-insSVD cells, 263 nM; in experiment [3], 183 nM.

`C=CC(=O)N1CCC[C@H]1COc1cnccc1-c1[nH]c2c(c1Nc1cccc(Cl)c1OC)C(=O)NCC2` [Example 13, 3-(3-chloro-2-methoxyanilino)-2-(3-{[(2S)-1-(prop-2-enoyl)pyrrolidin-2-yl]methoxy}pyridin-4-yl)-1,5,6,7-tetrahydro-4H-pyrrolo[3,2-c]pyridin-4-one]: 0.206 nM corresponded to half-maximal inhibition in experiment [1] (IC50). The values for the GI50 at Ba/F3-EGFR-WT cells and at Ba/F3-EGFR-insSVD cells were 51.2 nM and 6.69 nM, respectively.

For `C=CC(=O)N(C)CCOc1cnccc1-c1[nH]c2c(c1Nc1cccc(Cl)c1OC)C(=O)NC(C)(C)C2` [Example 12, N-[2-({4-[3-(3-chloro-2-methoxyanilino)-6,6-dimethyl-4-oxo-4,5,6,7-tetrahydro-1H-pyrrolo[3,2-c]pyridin-2-yl]pyridin-3-yl}oxy)ethyl]-N-methylprop-2-enamide], in experiment [1], inhibition was half-maximal at 0.583 nM (IC50). The GI50 in experiment [2] amounted to 276 nM; at Ba/F3-EGFR-WT cells it was 330 nM; on Ba/F3-EGFR-insSVD cells it was 17.7 nM; in experiment [3] it was 47.4 nM.

`C=CC(=O)NCCOc1cnccc1-c1[nH]c2c(c1Nc1cccc(Cl)c1C)C(=O)NCC2` [Example 3, N-[2-({4-[3-(3-chloro-2-methylanilino)-4-oxo-4,5,6,7-tetrahydro-1H-pyrrolo[3,2-c]pyridin-2-yl]pyridin-3-yl}oxy)ethyl]prop-2-enamide] yielded an IC50 in experiment [1] of 0.265 nM. For the same compound, the GI50 in experiment [2] turned out to be 201 nM; at Ba/F3-EGFR-WT cells it was 566 nM; at Ba/F3-EGFR-insSVD cells it was 40.2 nM; in experiment [3], 32.6 nM.

In experiment [1], `COc1c(F)cccc1Nc1c(-c2ccncc2OCCN(C)C(=O)/C=C/CN(C)C)[nH]c2c1C(=O)NCC2` [Example 8, (2E)-4-(dimethylamino)-N-[2-({4-[3-(3-fluoro-2-methoxyanilino)-4-oxo-4,5,6,7-tetrahydro-1H-pyrrolo[3,2-c]pyridin-2-yl]pyridin-3-yl}oxy)ethyl]-N-methylbut-2-enamide] showed an IC50 of 0.554 nM. Also, the GI50 in experiment [2] is over 1000 nM; on Ba/F3-EGFR-WT cells it was 4700 nM; at Ba/F3-EGFR-insSVD cells, 240 nM; in experiment [3], 370 nM.

One may read the IC50 as the midpoint of a concentration-inhibition curve.
